Results taken from PubChem BioAssay (NCI).
Values joined by “and” are separate entries in the source; they are usually repeats but may differ in a detail not shown here. Identical values can stand only once.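 Each compound was tested at five concentrations against cells in 96-well plates for 48 hours. GI50 = concentration required for 50% inhibition of growth. TGI marks complete inhibition of growth.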

Columns and labels:
Test in all cases: NCI anticancer screen, dose series, 48 h
A549 NSCLC = system: A549 NSCLC
SNB-75 CNS = system: SNB-75 CNS
UO-31 renal = system: UO-31 renal
OVCAR-3 ovarian = system: OVCAR-3 ovarian
NCI-H226 lung = system: NCI-H226 lung
HL-60(TB) leukemia = system: HL-60(TB) leukemia
DMS 273 small cell lung = system: DMS 273 small cell lung
HOP-92 NSCLC = system: HOP-92 NSCLC
SN12C renal = system: SN12C renal
HOP-18 NSCLC = system: HOP-18 NSCLC
EKVX NSCLC = system: EKVX NSCLC
NCI-H460 lung = system: NCI-H460 lung
DMS 114 small cell lung = system: DMS 114 small cell lung
LXFL 529 NSCLC = system: LXFL 529 NSCLC
CAKI-1 renal = system: CAKI-1 renal
CCRF-CEM leukemia = system: CCRF-CEM leukemia
RPMI-8226 leukemia = system: RPMI-8226 leukemia
KM20L2 colon = system: KM20L2 colon
SF-268 CNS = system: SF-268 CNS
UACC-62 melanoma = system: UACC-62 melanoma
KM12 colon = system: KM12 colon
SK-MEL-5 melanoma = system: SK-MEL-5 melanoma
DLD-1 colon = system: DLD-1 colon
K-562 leukemia = system: K-562 leukemia
NCI-H522 lung = system: NCI-H522 lung
M14 melanoma = system: M14 melanoma
SK-MEL-28 melanoma = system: SK-MEL-28 melanoma
A498 renal = system: A498 renal
NCI-H23 lung = system: NCI-H23 lung
SF-539 CNS = system: SF-539 CNS
RXF 393 renal = system: RXF 393 renal
OVCAR-5 ovarian = system: OVCAR-5 ovarian
SK-MEL-2 melanoma = system: SK-MEL-2 melanoma
HCT-116 colon = system: HCT-116 colon
M19-MEL melanoma = system: M19-MEL melanoma
SNB-78 CNS = system: SNB-78 CNS
TK-10 renal = system: TK-10 renal
XF 498 CNS = system: XF 498 CNS
IGROV1 ovarian = system: IGROV1 ovarian
786-0 renal = system: 786-0 renal
HT29 colon = system: HT29 colon
MALME-3M melanoma = system: MALME-3M melanoma
OVCAR-8 ovarian = system: OVCAR-8 ovarian
HOP-62 NSCLC = system: HOP-62 NSCLC
SW-620 colon = system: SW-620 colon
LOX IMVI melanoma = system: LOX IMVI melanoma
HCC-2998 colon = system: HCC-2998 colon
SK-OV-3 ovarian = system: SK-OV-3 ovarian
U251 CNS = system: U251 CNS
SF-295 CNS = system: SF-295 CNS
COLO 205 colon = system: COLO 205 colon
OVCAR-4 ovarian = system: OVCAR-4 ovarian
MOLT-4 leukemia = system: MOLT-4 leukemia
SNB-19 CNS = system: SNB-19 CNS
ACHN renal = system: ACHN renal
UACC-257 melanoma = system: UACC-257 melanoma
HCT-15 colon = system: HCT-15 colon

Structure (SMILES): CCOc1ccccc1NC(=O)/C=C1\NC(=O)CS1
- TGI (A549 NSCLC): > 100 µM
- TGI (SNB-75 CNS): 98.7 µM
- TGI (UO-31 renal): > 100 µM
- TGI (OVCAR-3 ovarian): > 100 µM
- TGI (NCI-H226 lung): > 100 µM
- TGI (HL-60(TB) leukemia): > 100 µM
- TGI (DMS 273 small cell lung): > 100 µM
- TGI (HOP-92 NSCLC): > 100 µM
- TGI (SN12C renal): > 100 µM
- TGI (HOP-18 NSCLC): > 100 µM
- TGI (EKVX NSCLC): > 100 µM
- TGI (NCI-H460 lung): > 100 µM
- TGI (DMS 114 small cell lung): > 100 µM
- TGI (LXFL 529 NSCLC): > 100 µM
- TGI (CAKI-1 renal): > 100 µM
- TGI (CCRF-CEM leukemia): > 100 µM
- TGI (RPMI-8226 leukemia): > 100 µM
- TGI (KM20L2 colon): > 100 µM
- TGI (SF-268 CNS): > 100 µM
- TGI (UACC-62 melanoma): > 100 µM
- TGI (KM12 colon): > 100 µM
- TGI (SK-MEL-5 melanoma): > 100 µM
- TGI (DLD-1 colon): > 100 µM
- TGI (K-562 leukemia): > 100 µM
- TGI (NCI-H522 lung): > 100 µM
- TGI (M14 melanoma): > 100 µM
- TGI (SK-MEL-28 melanoma): > 100 µM
- TGI (A498 renal): > 100 µM
- TGI (NCI-H23 lung): > 100 µM
- TGI (SF-539 CNS): > 100 µM
- TGI (RXF 393 renal): > 100 µM
- TGI (OVCAR-5 ovarian): > 100 µM
- TGI (SK-MEL-2 melanoma): > 100 µM
- TGI (HCT-116 colon): > 100 µM
- TGI (M19-MEL melanoma): > 100 µM
- TGI (SNB-78 CNS): > 100 µM
- TGI (TK-10 renal): > 100 µM
- TGI (XF 498 CNS): > 100 µM
- TGI (IGROV1 ovarian): > 100 µM
- TGI (786-0 renal): > 100 µM
- TGI (HT29 colon): > 100 µM
- TGI (MALME-3M melanoma): > 100 µM
- TGI (OVCAR-8 ovarian): > 100 µM
- TGI (HOP-62 NSCLC): > 100 µM
- TGI (SW-620 colon): > 100 µM
- TGI (LOX IMVI melanoma): > 100 µM
- TGI (HCC-2998 colon): > 100 µM
- TGI (SK-OV-3 ovarian): > 100 µM
- TGI (U251 CNS): > 100 µM
- TGI (SF-295 CNS): > 100 µM
- TGI (COLO 205 colon): > 100 µM
- TGI (OVCAR-4 ovarian): > 100 µM
- TGI (MOLT-4 leukemia): > 100 µM
- TGI (SNB-19 CNS): > 100 µM

Structure (SMILES): COc1cc(C2c3cc4c(cc3[C@@H](Nc3ccc(C(=O)O)cc3)C3COC(=O)[C@H]23)OCO4)cc(OC)c1O (stereo partly specified)
- TGI (A549 NSCLC): > 100 µM
- TGI (SNB-75 CNS): 27.6 µM and > 17.5 µM
- TGI (UO-31 renal): > 100 µM
- TGI (ACHN renal): > 100 µM
- TGI (OVCAR-3 ovarian): 66.9 µM and > 17.5 µM
- TGI (NCI-H226 lung): 15.8 µM and 13.9 µM
- TGI (HL-60(TB) leukemia): 22.8 µM and 16.7 µM
- TGI (DMS 273 small cell lung): 28.5 µM and > 17.5 µM
- TGI (HOP-92 NSCLC): 18.5 µM and > 17.5 µM
- TGI (UACC-257 melanoma): > 100 µM
- TGI (SN12C renal): 75.6 µM and > 17.5 µM
- GI50 (HOP-18 NSCLC): 16.8 µM and 5.25 µM
- TGI (HOP-18 NSCLC): > 100 µM
- TGI (EKVX NSCLC): > 100 µM
- TGI (NCI-H460 lung): 17.6 µM and > 17.5 µM
- GI50 (DMS 114 small cell lung): 13.9 µM and 5.44 µM
- TGI (DMS 114 small cell lung): 47.8 µM and > 17.5 µM
- TGI (HCT-15 colon): 32.8 µM and > 17.5 µM
- TGI (LXFL 529 NSCLC): 39.8 µM and > 17.5 µM
- TGI (CAKI-1 renal): 47.1 µM and > 17.5 µM
- TGI (CCRF-CEM leukemia): 15.1 µM and 8.82 µM
- GI50 (RPMI-8226 leukemia): 5.7 µM and 2.71 µM
- TGI (RPMI-8226 leukemia): 30.2 µM and 6.54 µM
- GI50 (KM20L2 colon): 36.8 µM and > 17.5 µM
- TGI (KM20L2 colon): > 100 µM
- TGI (SF-268 CNS): 69.1 µM and > 17.5 µM
- TGI (UACC-62 melanoma): 28.2 µM and > 17.5 µM
- TGI (KM12 colon): 68.5 µM and > 17.5 µM
- TGI (SK-MEL-5 melanoma): 38.3 µM and > 17.5 µM
- GI50 (DLD-1 colon): 17.2 µM and 6.86 µM
- TGI (DLD-1 colon): 54.9 µM and > 17.5 µM
- GI50 (K-562 leukemia): 14.5 µM and 6.68 µM
- TGI (K-562 leukemia): > 100 µM
- TGI (M14 melanoma): 59.9 µM and > 17.5 µM
- TGI (SK-MEL-28 melanoma): > 100 µM
- TGI (A498 renal): 68.8 µM and > 17.5 µM
- TGI (NCI-H23 lung): 31.1 µM and > 17.5 µM
- TGI (SF-539 CNS): 32.7 µM and > 17.5 µM
- TGI (RXF 393 renal): 37 µM and > 17.5 µM
- GI50 (OVCAR-5 ovarian): 48.3 µM and > 17.5 µM
- TGI (OVCAR-5 ovarian): > 100 µM
- TGI (SK-MEL-2 melanoma): 75.3 µM and > 17.5 µM
- TGI (HCT-116 colon): 43.9 µM and > 17.5 µM
- TGI (M19-MEL melanoma): 49.6 µM and > 17.5 µM
- TGI (SNB-78 CNS): 92.7 µM and 17.4 µM
- TGI (TK-10 renal): > 100 µM
- TGI (IGROV1 ovarian): 68.6 µM and > 17.5 µM
- GI50 (786-0 renal): 12.3 µM and 3.07 µM
- TGI (786-0 renal): 35 µM and > 17.5 µM
- TGI (HT29 colon): 64.8 µM and > 17.5 µM
- TGI (MALME-3M melanoma): 47.9 µM and > 17.5 µM
- TGI (OVCAR-8 ovarian): 54 µM and > 17.5 µM
- TGI (HOP-62 NSCLC): 33.9 µM and > 17.5 µM
- GI50 (SW-620 colon): 11.9 µM and 3.89 µM
- TGI (SW-620 colon): 62.4 µM and > 17.5 µM
- TGI (LOX IMVI melanoma): 18.7 µM and 5.1 µM
- TGI (HCC-2998 colon): 53.8 µM and > 17.5 µM
- GI50 (SK-OV-3 ovarian): 34.4 µM and 15.3 µM
- TGI (SK-OV-3 ovarian): > 100 µM
- GI50 (U251 CNS): 12.6 µM and 6.13 µM
- TGI (U251 CNS): 53 µM and > 17.5 µM
- TGI (SF-295 CNS): > 100 µM
- GI50 (COLO 205 colon): 26.8 µM and 12.9 µM
- TGI (COLO 205 colon): > 100 µM
- TGI (OVCAR-4 ovarian): > 100 µM
- TGI (MOLT-4 leukemia): 5.47 µM and 2.66 µM
- TGI (SNB-19 CNS): > 100 µM
